PubChem BioAssay AID1963845 (Molecular Pharmacology Branch, DTP, NCI, 2024)

Tested on: 429239-143-T-J1-PDC complex spheroid viability
Experiment: Anticancer human tumor 429239-143-T-J1-PDC patient-derived small cell lung carcinoma cell line growth inhibition [POLQ]
Settings: for IC50: curve of first compound; for viability, T/C: stronger effect = lower value
Method in brief: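 PDC + HUVEC + MSC complex spheroids; POLQ inhibitors ± partner drugs; top conc. at/near clinical Cmax, else 10 microM (SN-38 1 microM), half-log dilutions; 37 degrees C, 5% CO2.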
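Also: luminescence signal used as surrogate measure of viable cells; spheroids exposed to compounds for seven days before readout.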
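For viability, T/C in this document: 100% = DMSO vehicle control viability as luminescence relative to vehicle.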

CC(=O)O[C@H]1C(=O)[C@@]2(C)[C@H]([C@H](OC(=O)c3ccccc3)[C@]3(O)C[C@H](OC(=O)[C@H](O)[C@@H](NC(=O)c4ccccc4)c4ccccc4)C(C)=C1C3(C)C)[C@]1(OC(C)=O)CO[C@@H]1C[C@@H]2O + Nc1ccc(C#CCN(C(=O)Cc2ncc(C(F)(F)F)cc2C(F)(F)F)c2ccc(F)cc2)nn1
IC50 (second compound 0.0316 µM): 14.4 nM | IC50 (second compound 0.1 µM): 14.4 nM | IC50 (second compound 0.316 µM): 14 nM | IC50 (second compound 1 µM): 15.3 nM | IC50 (second compound 3.16 µM): 14.2 nM | IC50 (second compound 10 µM): 13.2 nM | viability, T/C (second compound 0.0316 µM, first compound 0.00949 µM): 65.6% | viability, T/C (second compound 0.0316 µM, first compound 0.03 µM): 20.2% | viability, T/C (second compound 0.0316 µM, first compound 0.0949 µM): 16% | viability, T/C (second compound 0.0316 µM, first compound 0.3 µM): 16.2% | viability, T/C (second compound 0.0316 µM, first compound 0.949 µM): 26.6% | viability, T/C (second compound 0.0316 µM, first compound 3 µM): 32.6% | viability, T/C (second compound 0.1 µM, first compound 0.00949 µM): 67% | viability, T/C (second compound 0.1 µM, first compound 0.03 µM): 18.6% | viability, T/C (second compound 0.1 µM, first compound 0.0949 µM): 15.9% | viability, T/C (second compound 0.1 µM, first compound 0.3 µM): 17.1% | viability, T/C (second compound 0.1 µM, first compound 0.949 µM): 22.2% | viability, T/C (second compound 0.1 µM, first compound 3 µM): 24.6% | viability, T/C (second compound 0.316 µM, first compound 0.00949 µM): 64.2% | viability, T/C (second compound 0.316 µM, first compound 0.03 µM): 22.6% | viability, T/C (second compound 0.316 µM, first compound 0.0949 µM): 16% | viability, T/C (second compound 0.316 µM, first compound 0.3 µM): 17.1% | viability, T/C (second compound 0.316 µM, first compound 0.949 µM): 19.8% | viability, T/C (second compound 0.316 µM, first compound 3 µM): 26.2% | viability, T/C (second compound 1 µM, first compound 0.00949 µM): 71% | viability, T/C (second compound 1 µM, first compound 0.03 µM): 18.2% | viability, T/C (second compound 1 µM, first compound 0.0949 µM): 14.8% | viability, T/C (second compound 1 µM, first compound 0.3 µM): 17.5% | viability, T/C (second compound 1 µM, first compound 0.949 µM): 25.2% | viability, T/C (second compound 1 µM, first compound 3 µM): 24% | viability, T/C (second compound 3.16 µM, first compound 0.00949 µM): 67% | viability, T/C (second compound 3.16 µM, first compound 0.03 µM): 16.2% | viability, T/C (second compound 3.16 µM, first compound 0.0949 µM): 15.4% | viability, T/C (second compound 3.16 µM, first compound 0.3 µM): 15.9% | viability, T/C (second compound 3.16 µM, first compound 0.949 µM): 18.5% | viability, T/C (second compound 3.16 µM, first compound 3 µM): 26.7% | viability, T/C (second compound 10 µM, first compound 0.00949 µM): 64.3% | viability, T/C (second compound 10 µM, first compound 0.03 µM): 14.5% | viability, T/C (second compound 10 µM, first compound 0.0949 µM): 13.4% | viability, T/C (second compound 10 µM, first compound 0.3 µM): 14.3% | viability, T/C (second compound 10 µM, first compound 0.949 µM): 15.9% | viability, T/C (second compound 10 µM, first compound 3 µM): 18.5%
